Data on two molecules can be found in patent US20100197610A1, “FRUCTOSE 1, 6 BISPHOSPHATE - A NOVEL ANTICONVULSANT DRUG” (Baylor College of Medicine, priority 2007, published 2010).

Series [1] relates to pilocarpine-induced seizures. The series can be described thus: Pilocarpine model of acute seizures. It counts as in vivo, Sprague Dawley rats. On the procedure:
(§1) All animal experiments were carried out in accordance with the National Institutes of Health guide for the care and use of laboratory animals (NIH publication 8023, revised 1996) and with the approval of the local Animal Use Committee. Unless indicated, all chemicals were obtained from Sigma Chemical Co (St. Louis Mo.). Male, Sprague Dawley rats weighing 50-74 g (young) or 147-309 g (adult) were used in this study. Acute seizures were induced by kainic acid (KA; Ocean Produce Int., Canada), pilocarpine or pentylenetetrazole (PTZ) as previously described (Lian et al 2006). These models were chosen because they initiate seizures by different mechanisms and the seizures have a relatively gradual onset compared to seizures initiated by stimulation. There was no difference in the body weight of the animals receiving the different convulsants. For pilocarpine, kainic acid and PTZ, the mean weights were 219±5 g (range 163-275 g), 215±7 g (range 183-258 g), and 216±13 g (range 147-309 g), respectively. The animals in the drug treatment groups were not different in weight from the animals in the control groups.
(§2) After administration of KA (10 mg/kg, ip), pilocarpine (scopolamine methyl bromide 1 mg/kg, s.c followed 15 min later by 300 mg/kg, ip pilocarpine) or PTZ (50 mg/kg, ip) (Lian et al., 2006), animals were continuously monitored for seizure activity for at least 5 h after KA or pilocarpine and for 30 min after PTZ. Behavioral seizures were scored by an investigator blinded to the treatment. Latency to the first wet dog shake after KA, latency to the first forelimb clonus (after pilocarpine, kainic acid or PTZ) and the score and duration of seizures were measured. When at least 1 hour had passed without any head bobbing (for pilocarpine) or any wet dog shakes (for KA), seizures were considered over. Status epilepticus lasting longer than 4 hours (for KA) or 5 hours (for pilocarpine) were assigned 4 and 5 hours for seizure duration. For animals receiving PTZ, the seizure duration was defined as the period of tonic-clonic seizures. EEG recording in the hippocampus was conducted as previously described (Lian et al., 2004). After anesthesia, a recording electrode was placed in a burr hole centered at 3.0 mm posterior to bregma, 1.8 mm lateral to the midline and then lowered 3.0 mm. A ground screw and wire was placed over the frontal region in another burr hole. This assembly was fixed to the skull with dental cement.
(§3) Each animal was assigned the score of the most severe seizure observed. The behavioral seizures induced by KA or pilocarpine were scored according to an adjusted version of the scale of Racine (Bough et al., 2002): stage 1, wet dog shakes after KA or trembling after pilocarpine; stage 2, head bobbing and stereotypes; stage 3, unilateral forelimb clonus; stage 4, bilateral forelimb clonus; stage 5, rearing and falling; stage 6, jumping and/or running followed by falling. Death within 24 h was assigned stage 7.
(§4) Adult rats received either D-F1,6BP, sodium valproate (VPA, 0.3 g/kg), 2-DG (0.25, 0.5 g/kg) or normal saline (vehicle) intraperitoneally followed 1 h later by one of the convulsants. The dose for VPA was based on experimental evidence that doses from 0.1 to 0.4 g/kg (ip) are effective in animal models (Bough and Eagles, 2001; Manent et al., 2007). Three doses of F1,6BP (0.25, 0.5 and 1 g/kg) were tested with this dosing schedule. Two additional groups were administered F1,6BP (0.5 or 1 g/kg, n=5) after pilocarpine. In this experiment, the F1,6BP was given intraperitoneally at the first behavioral seizure, which was chewing movements of the jaw. Two additional sets of animals were fed the classic ketogenic diet (No. F3666; Bio-Serv, Frenchtown, N.J.). One set of animals was given the diet beginning on postnatal day 22-26 (KD-Yng) and maintained on this diet for 4 weeks. Thus the seizures were tested in this group when the animals had reached approximately the same age (50-54 days) as the majority of the animals tested. […]

Series [2] relates to kainic acid-induced seizures. In words: Kainic acid model of acute seizures. The format is in vivo, Sprague Dawley rats. On the procedure:
as §1, §2, §3, §4

Series [3] has as its system PTZ-induced generalized tonic-clonic seizures. In words: PTZ model of acute seizures. The format is in vivo, Sprague Dawley rats. The protocol:
as §1, §2
Adult rats received either D-F1,6BP, sodium valproate (VPA, 0.3 g/kg), 2-DG (0.25, 0.5 g/kg) or normal saline (vehicle) intraperitoneally followed 1 h later by one of the convulsants. The dose for VPA was based on experimental evidence that doses from 0.1 to 0.4 g/kg (ip) are effective in animal models (Bough and Eagles, 2001; Manent et al., 2007). Three doses of F1,6BP (0.25, 0.5 and 1 g/kg) were tested with this dosing schedule. Two additional groups were administered F1,6BP (0.5 or 1 g/kg, n=5) after pilocarpine. In this experiment, the F1,6BP was given intraperitoneally at the first behavioral seizure, which was chewing movements of the jaw. Two additional sets of animals were fed the classic ketogenic diet (No. F3666; Bio-Serv, Frenchtown, N.J.). One set of animals was given the diet beginning on postnatal day 22-26 (KD-Yng) and maintained on this diet for 4 weeks. Thus the seizures were tested in this group when the animals had reached approximately the same age (50-54 days) as the majority of the animals tested.
The latency to seizure onset, seizure score and seizure duration were averaged across animals in each group. Comparisons between groups were done with an analysis of variance with Bonferroni post hoc test. Statistical difference was defined as p<0.05.

For series [4], the system named is memory consolidation. As to conditions: subcutaneous 0.3 μmol, chick (Gibbs and Summers, 2002); cited from earlier work.
Where [5] appears, read: VPA 0.3 g/kg ip pretreatment, n=9.
Where [6] appears, read: 2-DG 0.25 and 0.5 g/kg, n=5 each.

Turning to `CCCC(CCC)C(=O)[O-].[Na+]` [VPA, sodium valproate, reference compound], the “animals with forelimb clonus” value in series [1] (VPA 0.3 g/kg ip pretreatment) is given as 6 out of 9. Moreover, in series [1] (setting [5]), the animals that died result was “one died”, the mean seizure score entry was “significantly reduced” and the seizure duration result is “significantly reduced”. In series [2] (VPA 0.3 g/kg ip, n=6), the “appearance of forelimb clonus” value is recorded as “but not the appearance of forelimb clonus”, the “appearance of wet dog shakes” value is recorded as “significantly delayed”, the duration of seizures entry is “decreased” and the seizure score amounted to 4.5±0.2. In series [3] (VPA 0.3 g/kg), this molecule registered a seizure duration of 9 ± 4 s. For the same molecule, the “animals with no generalized tonic-clonic seizures” value in series [3] (VPA 0.3 g/kg, n=8) is “two animals”. The same molecule yielded a seizure latency in series [3] (VPA 0.3 g/kg, the six animals with seizures) of 185 ± 27 s.

Consider `O=CC[C@@H](O)[C@H](O)[C@H](O)CO` [2-DG, 2-deoxyglucose, reference compound], for which the “animals with a stage 3 seizure” value in series [1] (2-DG 0.25 g/kg, n=6) is recorded as “only one animal”. In series [1] (pretreatment with 2-DG), the seizure duration entry is “decreasing” and the seizure score result is recorded as “decreasing”. Also, in series [2] (2-DG 0.25 g/kg, n=6), the “appearance of the first wet dog shake” value is listed as “delayed” and the “effect on the other seizure parameters” value is given as “no effect”. Besides, the anticonvulsant activity entry in series [2] (2-DG 0.5 g/kg, n=3) is “no additional activity”. In series [3] (setting [6]), the “animals that had seizures” value is reported as “All animals” and the seizure latency result is reported as “not increased”. In series [3] (2-DG 0.25 g/kg), the seizure duration entry is “significantly shortened”. The “effect on memory consolidation” value in series [4] is “inhibit memory consolidation”.
